# Patent publication US20160038448A1, “THE INHIBITION OF THE TOXIC EFFECTS OF ISLET AMYLOID FORMATION BY FLURBIPROFEN AND FLURBIPROFEN DERIVATIVES” (The Research Foundation for the State University of New York, priority 2013, published 2016)
# “Also recorded” adds a separate entry of the source.
# Key:
# rat INS-1 beta-cells = test: AlamarBlue cell viability of beta-cells given aliquots of the IAPP amyloid time course; format: cell-based
# Description: FIG. 5. […] (A) A thioflavin-T monitored time course of amyloid formation in the presence and absence of flurbiprofen. […] 20 mM Tris-HCl buffer with 0.25% DMSO was used as the control.
# The presence of toxic intermediates is reduced when amyloid formation is accelerated by use of flurbiprofen or a flurbiprofen derivative. A thioflavin-T monitored time course of amyloid formation by human IAPP was conducted in the presence and absence of flurbiprofen. Aliquots were removed at various time points and applied to rat INS-1 beta-cells; at thirty minutes, at 12 hours, at 48 hours. Cell viability as judged by AlamarBlue assays. 20 mM Tris-HCl buffer with 0.25% DMSO was used as the control.
# human IAPP = molecular target: T1, human IAPP (Homo sapiens, UniProt P10997); test: Fluorescence detected thioflavin-T assay of the time course of amyloid formation; format: biochemical; conditions: for effect on islet amyloid formation (thioflavin-T time course): compound 20 parts, human IAPP 1 part, example in present tense; for inhibition of amyloid formation by human IAPP (amylin): 20 to 1 ratio of NSAID to human IAPP, pH 7.4, 25° C.
# T1 construct: Mature, fully processed, Amylin is 37 residues in length, contains a disulfide bond between residues 2 and 7; made in house; host or cells: chemical solid-phase peptide synthesis (Fmoc), no expression host
# T1 sequence (P10997 34-70 limits assumed): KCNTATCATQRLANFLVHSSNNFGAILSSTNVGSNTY
# Description: Peptides were first dissolved in 100% hexafluoroisopropanol (HFIP) at a concentration 1.6 mM and then filtered to remove any preformed amyloid aggregates. For thioflavin-T fluorescence assays, aliquots were lyophilized and redissolved in pH 7.4, 20 mM Tris-HCl buffer at the desired concentration. Aspirin and Ketoprofen were prepared in 100% dimethyl sulfoxide (DMSO).
# Solutions were prepared by adding pH 7.4, 20 mM Tris buffer and thioflavin-T to lyophilized dry peptides for a final peptide concentration of […]. For the studies of Aspirin and Ketoprofen, 0.25% DMSO was present in the solution. Measurements were made at 25° C. using a Beckman Coulter DTX880 plate reader without stirring. An excitation filter of 430 nm and an emission filter of 485 nm were used. To test disaggregate activity of Aspirin, peptide was first incubated in low-binding 96-wells plate and monitored by plate reader to ensure the formation of amyloid fibrils.
# A mixture of flurbiprofen (1-20 parts) and human IAPP (1 part) was monitored by fluorescence detected thioflavin-T assays. The assays monitored the time course of amyloid formation (amount vs time) in the presence and absence of flurbiprofen.
# A mixture of OH-flurbiprofen and human IAPP were monitored by fluorescence detected thioflavin-T assays. Three different concentrations (1:1 ratio, 1:10 ratio and 1:20 ratio of IAPP to OH-flurbiprofen) were tested against human IAPP without any added OH-flurbiprofen. The assays monitored the time course of amyloid formation (amount vs time) in the presence and absence of a flurbiprofen derivative.
# Three different mixtures of NSAIDs (20 parts) and human IAPP (1 parts) were compared to each other and human IAPP alone by fluorescence detected thioflavin-T assays. The assays monitored the time course of amyloid formation (amount vs time) in the presence and absence of aspirin, naproxen and flurbiprofen.
# [1] = molecular target: T2, pre-formed human amylin amyloid fibrils (Homo sapiens, UniProt P10997); test: Disaggregation of pre-formed amylin amyloid fibrils (thioflavin-T and TEM); format: biochemical; conditions: 20-fold excess added after amyloid formation was complete; up to 48 hours
# T2 construct: Mature, fully processed, Amylin is 37 residues in length, contains a disulfide bond between residues 2 and 7; made in house; host or cells: chemical solid-phase peptide synthesis (Fmoc), no expression host
# T2 sequence (P10997 34-70 limits assumed): T1 sequence (P10997 34-70 limits assumed)
# Description: Solutions were prepared by adding pH 7.4, 20 mM Tris buffer and thioflavin-T to lyophilized dry peptides for a final peptide concentration of 16 M. For the studies of Aspirin and Ketoprofen, 0.25% DMSO was present in the solution. Measurements were made at 25° C. using a Beckman Coulter DTX880 plate reader without stirring. An excitation filter of 430 nm and an emission filter of 485 nm were used.
# human IAPP (amylin) = molecular target: T3, human IAPP (amylin) (Homo sapiens, UniProt P10997); test: Transmission electron microscopy of amyloid fibrils; format: biochemical
# T3 construct: Mature, fully processed, Amylin is 37 residues in length, contains a disulfide bond between residues 2 and 7; made in house; host or cells: chemical solid-phase peptide synthesis (Fmoc), no expression host
# T3 sequence (P10997 34-70 limits assumed): T1 sequence (P10997 34-70 limits assumed)
# Description: TEM was performed at the Life Science Microscopy Center at Stony Brook University. Aliquots were removed from the same solutions that were used for the fluorescence measurements. 5 μL of peptide solution was placed on carbon-coated Formvar 300 mesh copper grid for one minute and then negatively stained with saturated uranyl acetate for another one minute.
# [2] = system: 3XL-IAPP mutant (F15L, F23L, Y37L human IAPP); test: Thioflavin-T assay of mutant human IAPP amyloid formation (3XL); format: biochemical; conditions: WT human IAPP and mutant IAPP compared
# Text: A mixture of flurbiprofen (20 parts) and human IAPP (1 part) was monitored by fluorescence detected thioflavin-T assays. The assays monitored the time course of amyloid formation (amount vs time) in the presence and absence of flurbiprofen. The effect of flurbiprofen in wild-type (WT) human IAPP, and in two mutants of human IAPP was monitored. In one mutant, all of the aromatic amino acids in human IAPP were replaced by […] human IAPP was examined. A second mutant in which […] human IAPP) was also tested.
# [3] = Parallel biophysical and cell viability experiments on h-IAPP variants; format: cell-based
# Description: Parallel biophysical and cell viability experiments were conducted using a range of conditions that alter the length of the lag phase. h-IAPP amyloid kinetics are concentration-dependent. Decreasing the peptide concentration leads to an increase in the length of the lag phase, while an increase in human-IAPP concentration leads to a shortening of the lag phase. The length of the lag phase can also be controlled by altering the temperature. Lower temperatures lead to a longer lag phase; the lag phase is 2-fold longer at 15° C. […] A set of rationally designed Ser-20 mutations were used. Ser-20 is located at a critical position in the h-IAPP sequence and modulates its aggregation kinetics. […] Toxicity and kinetics experiments were performed on the Ser-20 mutants. […] An human-IAPP triple mutant, 3×L-IAPP, in which Leu replaced the three aromatic residues (Phe-15, Phe=23 and Tyr-37) was tested. This mutant forms amyloid 9-fold more slowly than wild type human IAPP (Marek at al. 2007). […] The duration of toxicity for all the mutants and for all the conditions with human IAPP wild type correlated with the length of the respective lag phases.
# [4] = compound 20 parts, human IAPP 1 part, example in present tense
# [5] = 20 to 1 ratio of compound to human IAPP
# [6] = IAPP:compound ratios 1:1 to 1:20, pH 7.4, 20 mM Tris, 25° C.
molecule,measurement,setting,value
"O=C(O)Cc1ccc(-c2ccccc2)c(F)c1 [2-(2-Fluorobiphenyl-4-yl)acetic acid, 2-(2-fluorobiphenyl-4-yl)acetic acid]",presence and toxic effects of intermediates of amyloid formation,rat INS-1 beta-cells; [4],reduces the presence and toxic effects of intermediates of amyloid formation
same,effect on islet amyloid formation (thioflavin-T time course),human IAPP,accelerates islet amyloid formation
"O=C(O)Cc1ccc(-c2ccccc2)cc1 [2-(Biphenyl-4-yl)acetic acid, 2-(biphenyl-4-yl)acetic acid]",presence and toxic effects of intermediates of amyloid formation,rat INS-1 beta-cells; [4],reduces the presence and toxic effects of intermediates of amyloid formation
same,effect on islet amyloid formation (thioflavin-T time course),human IAPP,accelerates islet amyloid formation
"C[C@H](C(=O)O)c1ccc(-c2ccccc2)cc1 [(S)-2-(Biphenyl-4-yl)propanoic acid, (S)-2-(biphenyl-4-yl)propanoic acid]",presence and toxic effects of intermediates of amyloid formation,rat INS-1 beta-cells; [4],reduces the presence and toxic effects of intermediates of amyloid formation
same,effect on islet amyloid formation (thioflavin-T time course),human IAPP,accelerates islet amyloid formation
CC(C(=O)O)c1cccc(C(=O)c2ccccc2)c1 (stereo not shown) [Ketoprofen],disaggregation of pre-formed amylin amyloid fibrils,[1],unable to disassemble pre-formed amylin amyloid
same,inhibition of amylin amyloid formation judged by TEM,"human IAPP (amylin); equimolar to 20-fold excess of Ketoprofen, 42 hours, amylin 16 μM",not an amylin amyloid inhibitor; also recorded: does not inhibit amyloid formation by amylin
same,inhibition of amyloid formation by human IAPP (amylin),human IAPP,do not inhibit amylin amyloid formation
COc1ccc2cc([C@H](C)C(=O)O)ccc2c1 [Naproxen],amyloid fibrils by TEM in presence of NSAID,"human IAPP (amylin); 20-fold excess of NSAID over human IAPP, end of kinetic experiment",no changes in amyloid formation
same,inhibition of amyloid formation by human IAPP (amylin),human IAPP,no inhibition of amyloid
"CC(C(=O)O)c1ccc(-c2ccc(O)cc2)c(F)c1 (stereo not shown) [OH-flurbiprofen, 2-(2-fluoro-4′-hydroxybiphenyl-4-yl) propanoic acid]",presence and toxic effects of intermediates of amyloid formation,rat INS-1 beta-cells; human IAPP with compound,reduced the presence and toxic effects of intermediates of amyloid formation in a dose dependent fashion
same,effect on human IAPP amyloid formation (thioflavin-T time course),human IAPP; [5],highest rate of acceleration of amyloid formation
same,effect on human IAPP amyloid formation (thioflavin-T time course),human IAPP; [6],accelerated islet amyloid formation; also recorded: accelerates amyloid formation by human islet amyloid polypeptide
C[C@@H](C(=O)O)c1ccc(-c2ccccc2)c(F)c1 [R-flurbiprofen],presence and toxic effects of intermediates of amyloid formation,rat INS-1 beta-cells; human IAPP with compound,reduced the presence and toxic effects of intermediates of amyloid formation
same,effect on human IAPP amyloid formation (thioflavin-T time course),human IAPP; [5],accelerated islet amyloid formation
same,effect on human IAPP amyloid formation (thioflavin-T time course),"human IAPP; 20 to 1 ratio of compound to human IAPP, listed as R flurbiprofen",equally effective
same,"acceleration of amyloid formation and reduction of toxic effects of intermediates, WT human IAPP versus mutant IAPP",[2],about equally
CC[C@H](C)[C@H](NC(=O)[C@H](C)NC(=O)CNC(=O)[C@H](Cc1ccccc1)NC(=O)[C@H](CC(N)=O)NC(=O)[C@H](CC(N)=O)NC(=O)CNC(=O)[C@H](CO)NC(=O)[C@H](Cc1c[nH]cn1)NC(=O)[C@@H](NC(=O)[C@H](CC(C)C)NC(=O)[C@H](Cc1ccccc1)NC(=O)[C@H](CC(N)=O)NC(=O)[C@H](C)NC(=O)[C@H](CC(C)C)NC(=O)[C@H](CCCNC(=N)N)NC(=O)[C@H](CCC(N)=O)NC(=O)[C@@H](NC(=O)[C@H](C)NC(=O)[C@@H]1CSSC[C@H](NC(=O)[C@@H](N)CCCCN)C(=O)N[C@@H](CC(N)=O)C(=O)N[C@@H]([C@@H](C)O)C(=O)N[C@@H](C)C(=O)N[C@@H]([C@@H](C)O)C(=O)N1)[C@@H](C)O)C(C)C)C(=O)N[C@@H](CC(C)C)C(=O)N[C@@H](CO)C(=O)N[C@@H](CO)C(=O)N[C@H](C(=O)N[C@@H](CC(N)=O)C(=O)N[C@H](C(=O)NCC(=O)N[C@@H](CO)C(=O)N[C@@H](CC(N)=O)C(=O)N[C@H](C(=O)N[C@@H](Cc1ccc(O)cc1)C(N)=O)[C@@H](C)O)C(C)C)[C@@H](C)O [S20G-IAPP],onset and duration of toxicity relative to wild type human IAPP,[3],more rapid onset and shorter duration of toxicity
CC[C@H](C)[C@H](NC(=O)[C@H](C)NC(=O)CNC(=O)[C@H](Cc1ccccc1)NC(=O)[C@H](CC(N)=O)NC(=O)[C@H](CC(N)=O)NC(=O)[C@H](CCCCN)NC(=O)[C@H](CO)NC(=O)[C@H](Cc1c[nH]cn1)NC(=O)[C@@H](NC(=O)[C@H](CC(C)C)NC(=O)[C@H](Cc1ccccc1)NC(=O)[C@H](CC(N)=O)NC(=O)[C@H](C)NC(=O)[C@H](CC(C)C)NC(=O)[C@H](CCCNC(=N)N)NC(=O)[C@H](CCC(N)=O)NC(=O)[C@@H](NC(=O)[C@H](C)NC(=O)[C@@H]1CSSC[C@H](NC(=O)[C@@H](N)CCCCN)C(=O)N[C@@H](CC(N)=O)C(=O)N[C@@H]([C@@H](C)O)C(=O)N[C@@H](C)C(=O)N[C@@H]([C@@H](C)O)C(=O)N1)[C@@H](C)O)C(C)C)C(=O)N[C@@H](CC(C)C)C(=O)N[C@@H](CO)C(=O)N[C@@H](CO)C(=O)N[C@H](C(=O)N[C@@H](CC(N)=O)C(=O)N[C@H](C(=O)NCC(=O)N[C@@H](CO)C(=O)N[C@@H](CC(N)=O)C(=O)N[C@H](C(=O)N[C@@H](Cc1ccc(O)cc1)C(N)=O)[C@@H](C)O)C(C)C)[C@@H](C)O [S20K-human IAPP],onset and duration of toxicity relative to wild type human IAPP,[3],increased the duration of toxicity
S-Flurbiprofen,presence and toxic effects of intermediates of amyloid formation,rat INS-1 beta-cells; human IAPP with compound,reduced the presence and toxic effects of intermediates of amyloid formation
same,effect on human IAPP amyloid formation (thioflavin-T time course),"human IAPP; 20 to 1 ratio of compound to human IAPP, listed as S flurbiprofen",equally effective
same,effect on human IAPP amyloid formation (thioflavin-T time course),"human IAPP; 20 to 1 ratio of compound to human IAPP, listed as S-flurbiprofen",accelerated islet amyloid formation
same,effect on human IAPP amyloid formation (thioflavin-T time course),human IAPP; [6],accelerates amyloid formation by human IAPP in a dose dependent manner
same,"acceleration of amyloid formation and reduction of toxic effects of intermediates, WT human IAPP versus mutant IAPP",[2],about equally
